What was measured:
[1] = molecular target: T1, LipDH-mCherry; yeast lipoamide dehydrogenase (Saccharomyces cerevisiae, UniProt P09624); test: quenching of flavin fluorescence; format: biochemical; conditions: 1 uM probe, 100 uM NADPH; poor substrate
T1 sequence (P09624 22-499): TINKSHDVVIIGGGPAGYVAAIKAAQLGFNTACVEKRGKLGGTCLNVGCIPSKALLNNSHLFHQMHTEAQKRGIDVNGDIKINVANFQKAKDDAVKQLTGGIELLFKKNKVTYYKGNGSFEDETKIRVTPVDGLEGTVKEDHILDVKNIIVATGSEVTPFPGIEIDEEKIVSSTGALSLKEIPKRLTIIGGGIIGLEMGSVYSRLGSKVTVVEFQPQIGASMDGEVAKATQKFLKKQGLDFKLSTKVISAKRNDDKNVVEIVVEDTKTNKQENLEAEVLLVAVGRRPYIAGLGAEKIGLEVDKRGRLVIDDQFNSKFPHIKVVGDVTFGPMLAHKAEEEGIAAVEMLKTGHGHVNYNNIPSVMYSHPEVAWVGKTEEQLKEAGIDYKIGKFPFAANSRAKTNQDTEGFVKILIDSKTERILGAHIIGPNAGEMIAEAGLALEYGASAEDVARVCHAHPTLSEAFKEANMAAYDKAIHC

[2] = molecular target: T1, LipDH-mCherry; yeast lipoamide dehydrogenase; test: UV-Vis absorbance of purified protein; format: binding; conditions: 50 mM phosphate pH 7.5, 1 mM EDTA; bound as purified
[3] = molecular target: EcTrxR-mCherry (TrxR-mCherry); E. coli thioredoxin reductase (Escherichia coli, UniProt P0A9P4); test: UV-Vis absorbance of purified protein; format: binding; conditions: 50 mM phosphate pH 7.5, 1 mM EDTA; bound as purified
EcTrxR-mCherry (TrxR-mCherry); E. coli thioredoxin reductase, sequence (P0A9P4 2-321): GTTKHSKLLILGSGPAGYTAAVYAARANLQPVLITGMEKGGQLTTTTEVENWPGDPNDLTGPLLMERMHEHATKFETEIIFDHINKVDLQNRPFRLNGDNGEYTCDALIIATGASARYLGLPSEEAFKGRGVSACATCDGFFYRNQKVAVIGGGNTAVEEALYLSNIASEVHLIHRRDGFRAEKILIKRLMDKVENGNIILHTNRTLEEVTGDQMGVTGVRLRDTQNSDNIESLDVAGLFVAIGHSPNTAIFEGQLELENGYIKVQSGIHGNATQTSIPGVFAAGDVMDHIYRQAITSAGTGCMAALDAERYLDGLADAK

| Compound | quenching of flavin fluorescence (456/520 nm) on reduction [1] | UV-Vis absorbance of purified protein [2] | UV-Vis absorbance of purified protein [3] |
| --- | --- | --- | --- |
| NC(=O)C1=CN([C@@H]2O[C@H](COP(=O)(O)OP(=O)(O)OC[C@H]3O[C@@H](n4cnc5c(N)ncnc54)[C@H](OP(=O)(O)O)[C@@H]3O)[C@@H](O)[C@H]2O)C=CC1 [NADPH] | the probe responds slowly to this pyridine nucleotide |  |  |
| Cc1cc2nc3c(=O)[nH]c(=O)nc-3n(C[C@H](O)[C@H](O)[C@H](O)COP(=O)(O)OP(=O)(O)OC[C@H]3O[C@@H](n4cnc5c(N)ncnc54)[C@H](O)[C@@H]3O)c2cc1C [FAD] |  | purified construct contained the expected complement of flavin and mCherry absorbance contributions | found to contain the expected complement of flavin and mCherry |
